This passage reports IC50 results from patent US9505767B2, “Pyrazolo[1,5-A]pyrimidin-7(4H)-onehistone demethylase inhibitors” (Genentech, Inc., priority 2013, dated 2016).

In assay [1] the target is T1, KDM5A (Homo sapiens, UniProt P29375).
T1 construct: Full length recombinant Flag tagged KDM5A protein was purified from Sf9 insect cells; Flag; made in house; host or cells: Sf9 insect cells
The experiment in a line: KDM5A Demethylase Assay (TR-FRET Assay-C). The class given is biochemical. As to conditions: full length recombinant Flag tagged KDM5A, 2 nM, HEPES pH 7.0, 1 μM α-ketoglutarate, read-out: C KDM5A HTRF (IC50). On the procedure: Full length recombinant Flag tagged KDM5A protein was purified from Sf9 insect cells. The demethylation reaction buffer contained 50 mM HEPES pH 7.0, 0.01% Triton X-100, 0.5 mM ascorbate, 2 mM DTT, 1 μM α-ketoglutarate, and 100 μM Fe2(NH4)2(SO4)2. In a 10 μL demethylation reaction system, 2 nM recombinant KDM5A was added to compounds in the above buffer (Vt 5 uL) in a 384 well Proxi Plate (Perkin Elmer Corp.) and then 0.1 μM biotinylated H3K9me1 peptide (1-21 aa, New England Peptide, Vt 5 uL) was added to initiate the reaction (Vt 10 uL). (All protein/reagent concentrations are final concentrations.) Reactions were incubated for 30 minutes at room temperature, and then quenched by addition of 5 uL stop buffer (3 mM EDTA, 50 mM TrisCl pH 7.5, 0.01% Triton X-100, 0.01 mg/mL BSA) followed by addition of 5 uL of detection reagents (buffer as above without EDTA but with addition of 200 nM SA-XL665 (CisBio) and 2 nM Eu(W1024)-anti-H3K4Me1-2 antibody (PerkinElmer)). After a 30 minute incubation assays were read on a Perkin-Elmer Envision equipped with appropriate filters. IC50s were calculated using standard dose-response equations and relative to a Max (no inhibition) and Min (no enzyme or quenched enzyme) controls.

The target in assay [2] is T1, KDM5A. The experiment in a line: KDM5A Demethylase Assay (MassSpec Assay-A). To be noted: full length recombinant Flag tagged KDM5A, 20 nM; MassSpec readout; biotinylated H3K9me1 peptide 4.0 μM; read-out: A KDM5A MS (IC50). In kind it is biochemical. On the procedure:
Full length recombinant Flag tagged KDM5A protein was purified from […] insect cells. The demethylation reaction buffer contained 50 mM TrisCl pH 7.4, 0.01% Triton X-100, 0.025 mg/mL BSA, 1 mM ascorbate (Cat# A4034, Sigma Aldrich), 2 mM TCEP (Cat# D9779, Sigma Aldrich), 2.0 μM α-ketoglutarate (# K2010, Sigma Aldrich) and 50 μM Fe2(NH4)2(SO4)2 (Cat# F1543, Sigma Aldrich). In a 25 μL demethylation reaction system, 20 nM recombinant KDM5A and was incubated with compounds for 10 minutes in the above buffer, and then […] (# K2010, Sigma Aldrich), 4.0 μM biotinylated H3K9me1 peptide (1-21 aa), and Fe2(NH4)2(SO4)2 were added to initiate the reaction. (All reagent concentrations are final reagent concentrations.) Reactions were incubated for 30 minutes at room temperature, and then quenched by addition of an equal volume of 1% formic acid. After termination, plates were sealed and frozen at −80° C. for analysis.

pIC50: −log10 of the molar value.

T1 sequence (P29375 whole entry): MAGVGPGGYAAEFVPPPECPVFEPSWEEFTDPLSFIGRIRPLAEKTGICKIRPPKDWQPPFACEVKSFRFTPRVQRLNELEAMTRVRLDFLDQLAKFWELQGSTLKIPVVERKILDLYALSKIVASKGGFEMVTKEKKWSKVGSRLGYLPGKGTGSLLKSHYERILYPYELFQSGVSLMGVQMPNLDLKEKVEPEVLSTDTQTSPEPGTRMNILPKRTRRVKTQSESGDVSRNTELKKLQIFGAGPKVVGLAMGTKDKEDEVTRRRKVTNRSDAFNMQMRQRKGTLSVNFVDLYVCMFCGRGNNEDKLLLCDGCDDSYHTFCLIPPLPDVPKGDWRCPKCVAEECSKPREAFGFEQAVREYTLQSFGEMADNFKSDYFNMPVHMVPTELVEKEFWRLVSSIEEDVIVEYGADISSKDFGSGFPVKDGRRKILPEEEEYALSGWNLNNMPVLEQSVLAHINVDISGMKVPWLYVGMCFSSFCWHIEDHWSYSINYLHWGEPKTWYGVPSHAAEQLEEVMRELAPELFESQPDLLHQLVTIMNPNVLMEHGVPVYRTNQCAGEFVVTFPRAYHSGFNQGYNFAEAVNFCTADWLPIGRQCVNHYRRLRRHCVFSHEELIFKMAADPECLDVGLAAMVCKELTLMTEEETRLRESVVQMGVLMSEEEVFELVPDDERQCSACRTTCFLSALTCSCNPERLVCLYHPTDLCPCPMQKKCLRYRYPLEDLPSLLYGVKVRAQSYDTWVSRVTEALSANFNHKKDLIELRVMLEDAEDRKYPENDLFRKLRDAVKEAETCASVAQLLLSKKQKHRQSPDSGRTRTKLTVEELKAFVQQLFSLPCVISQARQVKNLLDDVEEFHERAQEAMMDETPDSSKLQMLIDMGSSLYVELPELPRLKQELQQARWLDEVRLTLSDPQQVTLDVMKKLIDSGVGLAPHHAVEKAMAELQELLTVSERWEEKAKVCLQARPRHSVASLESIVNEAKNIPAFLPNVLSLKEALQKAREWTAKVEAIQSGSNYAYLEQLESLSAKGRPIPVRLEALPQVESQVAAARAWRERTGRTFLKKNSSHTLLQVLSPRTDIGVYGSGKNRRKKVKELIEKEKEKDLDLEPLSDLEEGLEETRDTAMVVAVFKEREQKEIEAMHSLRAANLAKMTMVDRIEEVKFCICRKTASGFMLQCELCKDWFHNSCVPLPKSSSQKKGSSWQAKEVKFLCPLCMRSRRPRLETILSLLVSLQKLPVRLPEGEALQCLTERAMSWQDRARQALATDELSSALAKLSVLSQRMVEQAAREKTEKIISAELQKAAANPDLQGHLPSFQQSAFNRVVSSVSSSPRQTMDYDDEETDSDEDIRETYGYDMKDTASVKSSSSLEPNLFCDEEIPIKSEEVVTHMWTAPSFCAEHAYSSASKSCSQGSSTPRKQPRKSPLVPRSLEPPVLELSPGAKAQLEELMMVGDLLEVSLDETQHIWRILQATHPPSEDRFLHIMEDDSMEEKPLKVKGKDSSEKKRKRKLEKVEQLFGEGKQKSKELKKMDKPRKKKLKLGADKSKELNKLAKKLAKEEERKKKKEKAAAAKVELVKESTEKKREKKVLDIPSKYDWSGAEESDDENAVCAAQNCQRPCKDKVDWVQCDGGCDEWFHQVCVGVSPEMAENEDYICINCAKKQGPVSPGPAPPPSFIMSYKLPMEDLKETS

In general, pIC50 refers to the IC50 on a negative log10 scale, so that one unit is a factor of ten. Take `O=c1c2c([nH]c3c(-c4cnn(-c5ccccn5)c4)cnn13)CCC2` [Example 42, 3-(1-(pyridin-2-yl)-1H-pyrazol-4-yl)-6,7-dihydro-4H-cyclopenta[d]pyrazolo[1,5-a]pyrimidin-8(5H)-one]: the pIC50 in assay [1] is 7.49.

`Cc1ccc(-n2cc(-c3cnn4c(=O)c(C5CC5)c(C)[nH]c34)cn2)nc1` [Example 27, 6-cyclopropyl-5-methyl-3-(1-(5-methylpyridin-2-yl)-1H-pyrazol-4-yl)pyrazolo[1,5-a]pyrimidin-7(4H)-one]: the pIC50 in assay [1] was 7.48.

For the molecule `Cc1[nH]c2c(-n3cnc(-c4ccccn4)c3)cnn2c(=O)c1C(C)C` [Example 46, 6-isopropyl-5-methyl-3-(4-(pyridin-2-yl)-1H-imidazol-1-yl)pyrazolo[1,5-a]pyrimidin-7(4H)-one], in assay [1], the pIC50 was 7.63.

As for `CCc1c(C)[nH]c2c(-n3cnc(I)c3)cnn2c1=O` [Example 80, 6-ethyl-3-(4-iodo-1H-imidazol-1-yl)-5-methylpyrazolo[1,5-a]pyrimidin-7(4H)-one], the pIC50 in assay [2] is 4.53.

With `CCc1c(C)[nH]c2c(-c3cnn(-c4nccc5ccccc45)c3)cnn2c1=O` [Example 66, 6-ethyl-3-(1-(isoquinolin-1-yl)-1H-pyrazol-4-yl)-5-methylpyrazolo[1,5-a]pyrimidin-7(4H)-one], the pIC50 in assay [2] is 6.06.
